Experimental data: PubChem BioAssay (NCI)
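Compound exposure: 48 hours, 5 concentrations, 96-well plates. GI50 = concentration required for 50% inhibition of growth. At the TGI there is no net growth.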

Legend:
Experiment in all cases: NCI anticancer screen, dose series, 48 h
786-0 renal = test system: 786-0 renal
ACHN renal = test system: ACHN renal
DU-145 prostate = test system: DU-145 prostate
HCC-2998 colon = test system: HCC-2998 colon
HCT-116 colon = test system: HCT-116 colon
HCT-15 colon = test system: HCT-15 colon
HOP-62 NSCLC = test system: HOP-62 NSCLC
M14 melanoma = test system: M14 melanoma
MDA-MB-231 breast = test system: MDA-MB-231 breast
NCI-H23 lung = test system: NCI-H23 lung
OVCAR-5 ovarian = test system: OVCAR-5 ovarian
RXF 393 renal = test system: RXF 393 renal
SK-MEL-5 melanoma = test system: SK-MEL-5 melanoma
SK-OV-3 ovarian = test system: SK-OV-3 ovarian
SW-620 colon = test system: SW-620 colon
A498 renal = test system: A498 renal
A549 NSCLC = test system: A549 NSCLC
BT-549 breast = test system: BT-549 breast
CCRF-CEM leukemia = test system: CCRF-CEM leukemia
COLO 205 colon = test system: COLO 205 colon
EKVX NSCLC = test system: EKVX NSCLC
HL-60(TB) leukemia = test system: HL-60(TB) leukemia
HOP-92 NSCLC = test system: HOP-92 NSCLC
HS 578T breast = test system: HS 578T breast
HT29 colon = test system: HT29 colon
IGROV1 ovarian = test system: IGROV1 ovarian
K-562 leukemia = test system: K-562 leukemia
KM12 colon = test system: KM12 colon
LOX IMVI melanoma = test system: LOX IMVI melanoma
MOLT-4 leukemia = test system: MOLT-4 leukemia
NCI-H226 lung = test system: NCI-H226 lung
NCI-H460 lung = test system: NCI-H460 lung
NCI-H522 lung = test system: NCI-H522 lung
NCI/ADR-RES ovarian = test system: NCI/ADR-RES ovarian
OVCAR-3 ovarian = test system: OVCAR-3 ovarian
OVCAR-4 ovarian = test system: OVCAR-4 ovarian
OVCAR-8 ovarian = test system: OVCAR-8 ovarian
PC-3 prostate = test system: PC-3 prostate
RPMI-8226 leukemia = test system: RPMI-8226 leukemia
SF-268 CNS = test system: SF-268 CNS
SF-295 CNS = test system: SF-295 CNS
SK-MEL-28 melanoma = test system: SK-MEL-28 melanoma
SN12C renal = test system: SN12C renal
SNB-19 CNS = test system: SNB-19 CNS
SR leukemia = test system: SR leukemia
TK-10 renal = test system: TK-10 renal
U251 CNS = test system: U251 CNS
UACC-257 melanoma = test system: UACC-257 melanoma
UACC-62 melanoma = test system: UACC-62 melanoma
UO-31 renal = test system: UO-31 renal

SMILES: CSc1ccc2c(c1)C(=O)c1c-2n(CCCN)c(=O)c2cc([N+](=O)[O-])ccc12
- GI50 (786-0 renal): 0.0127 µM
- TGI (786-0 renal): 0.108 µM
- GI50 (ACHN renal): < 0.01 µM
- TGI (ACHN renal): 0.327 µM
- GI50 (DU-145 prostate): < 0.01 µM
- TGI (DU-145 prostate): 0.16 µM
- GI50 (HCC-2998 colon): 0.104 µM
- TGI (HCC-2998 colon): 0.581 µM
- GI50 (HCT-116 colon): < 0.01 µM
- TGI (HCT-116 colon): 0.173 µM
- GI50 (HCT-15 colon): 0.0962 µM
- TGI (HCT-15 colon): 0.249 µM
- GI50 (HOP-62 NSCLC): < 0.01 µM
- TGI (HOP-62 NSCLC): 0.147 µM
- GI50 (M14 melanoma): 0.0249 µM
- TGI (M14 melanoma): 1.07 µM
- GI50 (MDA-MB-231 breast): 0.215 µM
- TGI (MDA-MB-231 breast): 0.422 µM
- GI50 (NCI-H23 lung): < 0.01 µM
- TGI (NCI-H23 lung): 0.158 µM
- GI50 (OVCAR-5 ovarian): 0.123 µM
- TGI (OVCAR-5 ovarian): 0.872 µM
- GI50 (RXF 393 renal): 1.95 µM
- TGI (RXF 393 renal): > 100 µM
- GI50 (SK-MEL-5 melanoma): 0.127 µM
- TGI (SK-MEL-5 melanoma): 1.63 µM
- GI50 (SK-OV-3 ovarian): < 0.0117 µM
- TGI (SK-OV-3 ovarian): 1.37 µM
- GI50 (SW-620 colon): < 0.01 µM
- TGI (SW-620 colon): 0.209 µM

SMILES: COc1ccc(C(C)c2cc(OC)c(OC)c(OC)c2)cc1 (stereo unspecified)
- GI50 (786-0 renal): 0.213 µM
- TGI (786-0 renal): > 50 µM
- GI50 (A498 renal): 0.125 µM
- TGI (A498 renal): > 50 µM
- GI50 (A549 NSCLC): 0.189 µM
- TGI (A549 NSCLC): > 50 µM
- GI50 (ACHN renal): 0.341 µM
- TGI (ACHN renal): > 50 µM
- GI50 (BT-549 breast): 0.223 µM
- TGI (BT-549 breast): > 50 µM
- GI50 (CCRF-CEM leukemia): 0.182 µM
- TGI (CCRF-CEM leukemia): > 50 µM
- GI50 (COLO 205 colon): 0.109 µM
- TGI (COLO 205 colon): 0.325 µM
- GI50 (DU-145 prostate): 0.198 µM
- TGI (DU-145 prostate): > 50 µM
- GI50 (EKVX NSCLC): 0.373 µM
- TGI (EKVX NSCLC): > 50 µM
- GI50 (HCC-2998 colon): 0.21 µM
- TGI (HCC-2998 colon): > 50 µM
- GI50 (HCT-15 colon): 0.088 µM
- TGI (HCT-15 colon): > 50 µM
- GI50 (HL-60(TB) leukemia): 0.0979 µM
- TGI (HL-60(TB) leukemia): 0.374 µM
- GI50 (HOP-62 NSCLC): 0.259 µM
- TGI (HOP-62 NSCLC): > 50 µM
- GI50 (HOP-92 NSCLC): 3.6 µM
- TGI (HOP-92 NSCLC): > 50 µM
- GI50 (HS 578T breast): 0.244 µM
- TGI (HS 578T breast): > 50 µM
- GI50 (HT29 colon): 0.107 µM
- TGI (HT29 colon): > 50 µM
- GI50 (IGROV1 ovarian): 0.278 µM
- TGI (IGROV1 ovarian): > 50 µM
- GI50 (K-562 leukemia): 0.0261 µM
- TGI (K-562 leukemia): > 50 µM
- GI50 (KM12 colon): 0.058 µM
- TGI (KM12 colon): > 50 µM
- GI50 (LOX IMVI melanoma): 0.537 µM
- TGI (LOX IMVI melanoma): > 50 µM
- GI50 (MDA-MB-231 breast): 0.341 µM
- TGI (MDA-MB-231 breast): > 50 µM
- GI50 (MOLT-4 leukemia): 0.264 µM
- TGI (MOLT-4 leukemia): > 50 µM
- GI50 (NCI-H226 lung): 46.5 µM
- TGI (NCI-H226 lung): > 50 µM
- GI50 (NCI-H23 lung): 0.292 µM
- TGI (NCI-H23 lung): > 50 µM
- GI50 (NCI-H460 lung): 0.177 µM
- TGI (NCI-H460 lung): > 50 µM
- GI50 (NCI-H522 lung): 0.133 µM
- TGI (NCI-H522 lung): > 50 µM
- GI50 (NCI/ADR-RES ovarian): 0.0574 µM
- TGI (NCI/ADR-RES ovarian): > 50 µM
- GI50 (OVCAR-3 ovarian): 0.0889 µM
- TGI (OVCAR-3 ovarian): 0.384 µM
- GI50 (OVCAR-4 ovarian): 2.97 µM
- TGI (OVCAR-4 ovarian): > 50 µM
- GI50 (OVCAR-5 ovarian): 0.291 µM
- TGI (OVCAR-5 ovarian): > 50 µM
- GI50 (OVCAR-8 ovarian): 0.263 µM
- TGI (OVCAR-8 ovarian): > 50 µM
- GI50 (PC-3 prostate): 0.165 µM
- TGI (PC-3 prostate): > 50 µM
- GI50 (RPMI-8226 leukemia): 0.209 µM
- TGI (RPMI-8226 leukemia): > 50 µM
- GI50 (RXF 393 renal): 0.126 µM
- TGI (RXF 393 renal): > 50 µM
- GI50 (SF-268 CNS): 0.621 µM
- TGI (SF-268 CNS): > 50 µM
- GI50 (SF-295 CNS): 0.0752 µM
- TGI (SF-295 CNS): > 50 µM
- GI50 (SK-MEL-28 melanoma): 25.2 µM
- TGI (SK-MEL-28 melanoma): > 50 µM
- GI50 (SK-MEL-5 melanoma): 0.13 µM
- TGI (SK-MEL-5 melanoma): 12.8 µM
- GI50 (SK-OV-3 ovarian): 0.159 µM
- TGI (SK-OV-3 ovarian): > 50 µM
- GI50 (SN12C renal): 0.546 µM
- TGI (SN12C renal): > 50 µM
- GI50 (SNB-19 CNS): 0.221 µM
- TGI (SNB-19 CNS): > 50 µM
- GI50 (SR leukemia): 0.0303 µM
- TGI (SR leukemia): > 50 µM
- GI50 (SW-620 colon): 0.0581 µM
- TGI (SW-620 colon): > 50 µM
- GI50 (TK-10 renal): > 50 µM
- TGI (TK-10 renal): > 50 µM
- GI50 (U251 CNS): 0.173 µM
- TGI (U251 CNS): > 50 µM
- GI50 (UACC-257 melanoma): 32.3 µM
- TGI (UACC-257 melanoma): > 50 µM
- GI50 (UACC-62 melanoma): 0.27 µM
- TGI (UACC-62 melanoma): > 50 µM
- GI50 (UO-31 renal): 0.409 µM
- TGI (UO-31 renal): > 50 µM
